From the supplement of paper PMC4862054

How the values were obtained:
[1] = system: HCC1599; assay: drug sensitivity score (DSS), CellTox Green (DSS (AUC-based score)); higher = stronger drug effect (viability inhibition or cytotoxicity); extreme values may be limits of the assay; details: incubation time: 72 h
Outline: (§1)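 The drug sensitivity score was computed from the area under the fitted dose-response curve. Breast cancer cell lines in 20 µl suspension went into 384-well plates holding compound at 5 concentrations (10-fold steps over a 10,000-fold, compound-specific range) for 72 h of incubation. CellTox Green fluorescence (485/520 nm) was read before CellTiter-Glo luminescence, the latter after 10 min at room temperature, and each plate was normalised to 0.1 % DMSO and a positive kill control.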

[2] = system: MCF-10A; assay: as above; details: incubation time: 72 h
Outline: as §1

[3] = system: CAL-85-1; assay: as above; details: incubation time: 72 h
Outline: as §1

[4] = system: MDA-MB-453; assay: as above; details: incubation time: 72 h
Outline: as §1

[5] = system: MDA-MB-436; assay: as above; details: incubation time: 72 h
Outline: as §1

[6] = system: HCC1143; assay: as above; details: incubation time: 72 h
Outline: as §1

[7] = system: HDQ-P1; assay: as above; details: incubation time: 72 h
Outline: as §1

[8] = system: HCC1937; details: 72 h
Outline: (§2)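 To measure viability, fluorescence at 560/590 nm was read after 2.5 µl CellTiter-Blue had been added for 2 h at 37 °C. Cells from breast cancer lines had been seeded in 20 µl suspension onto 384-well plates pre-loaded with compound dissolved in 5 µl medium and kept for 72 h. EC50 comes from a fitted percent-inhibition dose-response curve censored at the highest concentration, after per-plate normalisation to vehicle and a positive kill control, Z'-factor checks, and removal of rows with zero drug sensitivity score.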

[9] = system: CAL-120; details: 72 h
Outline: as §2

[10] = system: CAL-148; details: 72 h
Outline: as §2

[11] = system: SK-BR-3; details: 72 h
Outline: as §2

[12] = system: BT-549; details: 72 h
Outline: as §2

[13] = system: MDA-MB-436; details: 72 h
Outline: as §2

Row | SMILES | drug sensitivity score [1] | drug sensitivity score [2] | drug sensitivity score [3] | drug sensitivity score [4] | drug sensitivity score [5] | drug sensitivity score [6] | drug sensitivity score [7] | EC50, CellTiter-Blue viability [8] [nM] | EC50, CellTiter-Blue viability [9] [nM] | EC50, CellTiter-Blue viability [10] [nM] | EC50, CellTiter-Blue viability [11] [nM] | EC50, CellTiter-Blue viability [12] [nM] | EC50, CellTiter-Blue viability [13] [nM]
1 | S=c1[nH]cnc2nc[nH]c12 [Mercaptopurine] | 0 | 0 | 0 | 0 | 0 | 0 | 0 | 1550 | 9910 |  |  |  | 
2 | COc1cccc2cc(-c3nc([C@H]4CC[C@H](C(=O)O)CC4)n4ncnc(N)c34)[nH]c12 [OSI-027] | 0 | 0 | 0.0118 | 0 | 0 | 0 | 0 | 771 | 1800 | 1640 | 73.4 | 2580 | 370
3 | OC[C@H]1O[C@@H](n2cnc3c2N=CNC[C@H]3O)C[C@@H]1O [Pentostatin] | 0 | 0 | 0 | 0 | 0 | 0 | 0 |  |  |  |  |  | 
4 | N#CC[C@H](C1CCCC1)n1cc(-c2ncnc3[nH]ccc23)cn1 [Ruxolitinib] | 0 | 0 | 0 | 0 | 0 | 0 | 4.94 | 1650 |  |  |  |  | 
5 | C=CC[C@@H]1/C=C(\C)C[C@H](C)C[C@H](OC)[C@H]2O[C@@](O)(C(=O)C(=O)N3CCCC[C@H]3C(=O)O[C@H](/C(C)=C/[C@@H]3CC[C@@H](O)[C@H](OC)C3)[C@H](C)[C@@H](O)CC1=O)[C@H](C)C[C@@H]2OC [Tacrolimus] | 0 | 0.439 | 0 | 0 | 0 | 0 | 0 |  |  |  |  |  | 
6 | C=CCNC1=C2C[C@@H](C)C[C@H](OC)[C@H](O)[C@@H](C)/C=C(\C)[C@H](OC(N)=O)[C@@H](OC)/C=C\C=C(/C)C(=O)NC(=CC1=O)C2=O [Tanespimycin] | 0 | 15.9 | 7.62 | 0 | 0 | 2.55 | 10.1 | 100 | 218 | 65.9 | 15.7 | 20.9 | 25.2
7 | CO[C@H]1C[C@@H]2CC[C@@H](C)[C@@](O)(O2)C(=O)C(=O)N2CCCC[C@H]2C(=O)O[C@H]([C@H](C)C[C@@H]2CC[C@@H](OC(=O)C(C)(CO)CO)[C@H](OC)C2)CC(=O)[C@H](C)/C=C(\C)[C@@H](O)[C@@H](OC)C(=O)[C@H](C)C[C@H](C)/C=C/C=C/C=C/1C [Temsirolimus] | 0 | 0 | 0 | 0 | 0 | 0 | 0 |  | 1.07 | 0.47 | 0.92 | 0.18 | 5.05
8 | O=C(c1ccc(C(=O)N2CCC(N3CCCC3)CC2)c(Nc2ccccc2)c1)N1CCC(N2CCCC2)CC1 [UNC1215] | 0 | 0 | 0 | 0 | 0 | 0.868 | 0 |  |  |  |  |  | 
9 | C[C@]1(c2nc3c(C(N)=O)cccc3[nH]2)CCCN1 [Veliparib] | 0 | 0 | 0.454 | 0 | 0 | 0 | 0 |  |  |  |  |  | 
10 | CC[C@]1(O)C[C@@H]2CN(CCc3c([nH]c4ccccc34)[C@@](C(=O)OC)(c3cc4c(cc3OC)N(C)[C@H]3[C@@](O)(C(=O)OC)[C@H](OC(C)=O)[C@]5(CC)C=CCN6CC[C@]43[C@@H]65)C2)C1 [Vinblastine] | 2.86 | 12.5 | 6.07 | 0 | 0 | 9.2 | 0 | 0.67 | 0.3 | 13.2 | 0.3 | 3.04 | 5.02
11 | CS(=O)(=O)c1ccc(C(=O)Nc2ccc(Cl)c(-c3ccccn3)c2)c(Cl)c1 [Vismodegib] | 0 | 0 | 0 | 0 | 0 | 0 | 0 | 3920 |  |  |  |  | 58.8
